Reference: patent US10125098B2, “Therapeutic compounds and methods of use thereof” (GENENTECH, INC., priority 2014, dated 2018)
pIC50: −log10 of the molar value. Like-named read-outs stand apart in the source and are kept apart here.

Key:
[1] = biological target: T1, human NaV1.7 (Homo sapiens, UniProt Q15858); test: Patch voltage clamp electrophysiology assay (EP), NaV1.7; assay type: cell-based; conditions: HEK-293 cells stably expressing NaV1.7 with β1 subunit; whole-cell patch clamp, membrane potential −60 mV (inactivated state)
T1 construct: permanently transfected with an expression vector containing the full-length cDNA coding for the desired human sodium channel α-subunit; expressed in transfected cells; host or cells: HEK-293
T1 sequence (Q15858 1-1977 isoform Q15858-3): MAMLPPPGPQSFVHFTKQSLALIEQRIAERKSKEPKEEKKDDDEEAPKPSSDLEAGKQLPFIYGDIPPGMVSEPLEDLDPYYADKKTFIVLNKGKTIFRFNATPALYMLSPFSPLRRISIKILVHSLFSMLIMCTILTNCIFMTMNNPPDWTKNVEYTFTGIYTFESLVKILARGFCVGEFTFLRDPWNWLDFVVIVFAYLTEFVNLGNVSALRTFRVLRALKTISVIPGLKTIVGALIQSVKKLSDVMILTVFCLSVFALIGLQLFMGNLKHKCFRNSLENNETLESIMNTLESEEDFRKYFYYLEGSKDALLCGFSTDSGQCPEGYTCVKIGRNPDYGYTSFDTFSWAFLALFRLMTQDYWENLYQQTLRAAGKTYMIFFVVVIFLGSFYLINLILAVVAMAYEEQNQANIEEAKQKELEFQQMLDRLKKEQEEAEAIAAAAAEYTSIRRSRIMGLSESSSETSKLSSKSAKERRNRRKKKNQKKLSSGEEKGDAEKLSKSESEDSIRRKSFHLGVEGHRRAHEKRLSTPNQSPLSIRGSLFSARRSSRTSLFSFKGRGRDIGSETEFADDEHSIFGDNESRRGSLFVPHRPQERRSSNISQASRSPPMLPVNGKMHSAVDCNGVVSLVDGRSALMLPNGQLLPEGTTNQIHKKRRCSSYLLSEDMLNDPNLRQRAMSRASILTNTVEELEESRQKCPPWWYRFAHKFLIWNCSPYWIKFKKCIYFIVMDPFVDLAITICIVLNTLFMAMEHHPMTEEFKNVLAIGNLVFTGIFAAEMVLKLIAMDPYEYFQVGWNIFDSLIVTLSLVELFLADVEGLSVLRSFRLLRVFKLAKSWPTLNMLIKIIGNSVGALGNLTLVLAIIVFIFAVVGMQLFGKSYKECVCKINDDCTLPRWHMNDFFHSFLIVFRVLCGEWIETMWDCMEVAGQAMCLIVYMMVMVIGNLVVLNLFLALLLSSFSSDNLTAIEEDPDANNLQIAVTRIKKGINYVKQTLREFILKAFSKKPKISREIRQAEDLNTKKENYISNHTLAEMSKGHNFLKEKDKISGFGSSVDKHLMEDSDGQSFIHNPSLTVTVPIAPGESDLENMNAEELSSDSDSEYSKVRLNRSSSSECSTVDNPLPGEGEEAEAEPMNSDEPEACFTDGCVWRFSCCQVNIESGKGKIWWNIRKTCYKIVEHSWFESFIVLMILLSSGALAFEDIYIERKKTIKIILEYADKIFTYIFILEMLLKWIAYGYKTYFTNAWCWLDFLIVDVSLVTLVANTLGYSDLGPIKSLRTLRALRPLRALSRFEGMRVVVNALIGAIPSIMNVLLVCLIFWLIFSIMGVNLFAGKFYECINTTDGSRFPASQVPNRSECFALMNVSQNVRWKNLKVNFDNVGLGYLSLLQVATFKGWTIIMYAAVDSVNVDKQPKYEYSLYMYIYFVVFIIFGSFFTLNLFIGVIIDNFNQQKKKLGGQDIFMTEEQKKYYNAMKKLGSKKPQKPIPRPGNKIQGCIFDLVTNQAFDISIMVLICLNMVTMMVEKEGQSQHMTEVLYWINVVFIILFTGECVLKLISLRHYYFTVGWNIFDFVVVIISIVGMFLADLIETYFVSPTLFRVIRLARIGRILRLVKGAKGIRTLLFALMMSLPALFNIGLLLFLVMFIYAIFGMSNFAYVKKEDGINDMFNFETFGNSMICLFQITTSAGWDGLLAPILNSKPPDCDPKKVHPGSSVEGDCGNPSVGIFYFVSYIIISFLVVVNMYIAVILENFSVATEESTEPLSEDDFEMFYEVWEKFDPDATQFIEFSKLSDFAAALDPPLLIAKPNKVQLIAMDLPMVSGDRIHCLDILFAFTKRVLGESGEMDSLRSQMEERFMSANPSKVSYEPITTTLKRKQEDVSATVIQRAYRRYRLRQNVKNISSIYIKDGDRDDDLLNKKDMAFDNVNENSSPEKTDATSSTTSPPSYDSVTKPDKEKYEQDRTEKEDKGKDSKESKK
T1 sequence (Q07699 19-218 partner): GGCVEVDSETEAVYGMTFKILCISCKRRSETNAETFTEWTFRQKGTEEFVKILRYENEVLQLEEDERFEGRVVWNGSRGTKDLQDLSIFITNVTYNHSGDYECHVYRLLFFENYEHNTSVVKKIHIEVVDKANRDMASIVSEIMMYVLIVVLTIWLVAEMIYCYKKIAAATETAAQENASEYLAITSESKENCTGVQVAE
In short: (§1)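 Percent block is the drop in sodium current after compound wash-on, measured by a test pulse following 20 ms at −150 mV from a −60 mV inactivating holding potential.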

[2] = biological target: T2, hNav1.7 (Homo sapiens, UniProt Q15858); test: Tritiated compound binding (LBA) to membranes from cells expressing hNav1.7 and the β1 subunit, competitive binding; conditions: competitive binding vs 100 pM [3H]compound, 18 h, room temperature, membranes with hNav1.7 and β1 subunit
T2 construct: expressed in transfected cells
T2 sequence (Q15858 1-1977 isoform Q15858-3): as the sequence (Q15858 1-1977 isoform Q15858-3) above
T2 sequence (Q07699 19-218 partner): as the sequence (Q07699 19-218 partner) above
In short: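 Competitive displacement of 100 pM [3H]compound (tritiated methyl analogue of formula (I)) from hNav1.7/β1 membranes, 18 h at room temperature in NaCl/Tris pH 7.4 buffer containing 0.01% BSA. 1 μM unlabeled compound set non-specific binding. Bound label quantified by scintillation after filtration; 4-parameter fit gave IC50.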

[3] = biological target: T3, NaV1.5 (Homo sapiens, UniProt Q14524); test: Patch voltage clamp electrophysiology assay (EP), NaV1.5; assay type: cell-based; conditions: HEK-293 cells stably expressing NaV1.5 with β1 subunit, whole-cell patch clamp, membrane potential −60 mV (inactivated state)
T3 construct: permanently transfected with an expression vector containing the full-length cDNA coding for the desired human sodium channel α-subunit; expressed in transfected cells; host or cells: HEK-293
T3 sequence (Q14524 whole entry): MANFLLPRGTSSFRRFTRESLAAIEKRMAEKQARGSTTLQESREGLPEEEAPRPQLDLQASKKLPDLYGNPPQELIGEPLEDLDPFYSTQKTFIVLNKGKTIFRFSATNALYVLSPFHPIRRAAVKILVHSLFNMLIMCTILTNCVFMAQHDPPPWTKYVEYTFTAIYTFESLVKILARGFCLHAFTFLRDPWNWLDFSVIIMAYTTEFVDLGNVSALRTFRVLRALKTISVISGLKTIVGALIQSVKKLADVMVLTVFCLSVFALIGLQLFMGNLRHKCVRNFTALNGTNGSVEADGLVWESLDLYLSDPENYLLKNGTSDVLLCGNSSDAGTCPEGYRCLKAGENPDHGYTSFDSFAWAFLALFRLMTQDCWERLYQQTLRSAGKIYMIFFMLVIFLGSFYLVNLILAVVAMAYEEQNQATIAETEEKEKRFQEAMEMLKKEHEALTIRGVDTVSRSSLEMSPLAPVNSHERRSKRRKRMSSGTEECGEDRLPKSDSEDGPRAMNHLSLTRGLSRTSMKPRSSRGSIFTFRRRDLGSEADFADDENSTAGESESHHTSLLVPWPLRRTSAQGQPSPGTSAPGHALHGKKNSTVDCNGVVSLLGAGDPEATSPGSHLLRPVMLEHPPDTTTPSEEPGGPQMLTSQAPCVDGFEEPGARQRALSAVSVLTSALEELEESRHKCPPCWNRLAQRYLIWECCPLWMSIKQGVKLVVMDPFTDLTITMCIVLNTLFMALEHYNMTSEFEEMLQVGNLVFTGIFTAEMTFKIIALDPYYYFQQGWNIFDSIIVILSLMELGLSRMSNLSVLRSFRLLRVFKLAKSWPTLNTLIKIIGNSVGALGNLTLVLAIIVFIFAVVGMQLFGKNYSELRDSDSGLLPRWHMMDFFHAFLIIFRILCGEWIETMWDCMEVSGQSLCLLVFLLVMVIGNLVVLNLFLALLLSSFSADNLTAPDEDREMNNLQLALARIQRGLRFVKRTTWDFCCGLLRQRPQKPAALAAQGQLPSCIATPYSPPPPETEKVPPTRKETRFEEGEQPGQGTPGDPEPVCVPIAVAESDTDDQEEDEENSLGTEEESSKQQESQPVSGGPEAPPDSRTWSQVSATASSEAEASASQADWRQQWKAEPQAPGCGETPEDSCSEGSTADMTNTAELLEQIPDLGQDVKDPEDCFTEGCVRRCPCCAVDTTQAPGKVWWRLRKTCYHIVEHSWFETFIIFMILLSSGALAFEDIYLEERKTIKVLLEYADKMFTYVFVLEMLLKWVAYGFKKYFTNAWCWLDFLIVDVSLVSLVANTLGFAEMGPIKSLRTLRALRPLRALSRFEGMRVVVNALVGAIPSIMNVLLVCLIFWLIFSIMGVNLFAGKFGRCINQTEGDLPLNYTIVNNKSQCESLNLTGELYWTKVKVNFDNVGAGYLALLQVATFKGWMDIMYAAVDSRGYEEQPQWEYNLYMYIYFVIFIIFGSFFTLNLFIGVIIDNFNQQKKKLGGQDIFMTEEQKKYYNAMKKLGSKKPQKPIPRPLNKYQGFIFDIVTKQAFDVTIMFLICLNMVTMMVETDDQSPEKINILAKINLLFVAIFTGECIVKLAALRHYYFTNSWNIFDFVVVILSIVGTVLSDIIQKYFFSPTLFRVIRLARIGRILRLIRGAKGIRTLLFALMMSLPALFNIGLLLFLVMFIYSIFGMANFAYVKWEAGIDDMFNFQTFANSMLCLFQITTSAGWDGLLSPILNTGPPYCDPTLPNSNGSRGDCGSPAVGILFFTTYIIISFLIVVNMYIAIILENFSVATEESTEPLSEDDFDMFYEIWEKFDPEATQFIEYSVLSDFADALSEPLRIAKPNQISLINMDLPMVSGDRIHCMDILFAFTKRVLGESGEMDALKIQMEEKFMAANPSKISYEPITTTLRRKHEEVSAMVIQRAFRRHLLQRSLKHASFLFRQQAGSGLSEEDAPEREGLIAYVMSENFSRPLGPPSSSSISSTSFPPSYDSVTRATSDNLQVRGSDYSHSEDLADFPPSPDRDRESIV
In short: as §1

[4] = human, HEK-293 cells stably expressing human NaV1.5 with β1 subunit, pH 7.4

| Structure (SMILES) | pIC50 [1] | pIC50 [2] | pIC50 ([3]; read-out: Nav1.5) | pIC50 [3, 4] |
| --- | --- | --- | --- | --- |
| CC(C)[C@@H](C(=O)O)N(C)C(=O)c1cc(C2CC2)c(OCC23CC4CC(CC(C4)C2)C3)cc1F [Example 67, N-(4-(adamantan-1-ylmethoxy)-5-cyclopropyl-2-fluorobenzoyl)-N-methyl-L-valine] | 5.52 | 6.00 | 5.12 | – |
| O=C(O)[C@@H]1CCCCN1C(=O)c1cc(C2CC2)c(OCC23CC4CC(CC(C4)C2)C3)cc1F [Example 83, (S)-1-(4-(adamantan-1-ylmethoxy)-5-cyclopropyl-2-fluorobenzoyl)piperidine-2-carboxylic acid] | 5.70 | 6.32 | 4.85 | – |
| O=C(O)[C@@H]1CCCN1C(=O)c1cc(C2CC2)c(OC2CN(C(c3ccccc3)c3ccccc3)C2)cc1F [Example 141, (S)-1-(4-(1-benzhydrylazetidin-3-yloxy)-5-cyclopropyl-2-fluorobenzoyl)pyrrolidine-2-carboxylic acid] | 5.21 | 6.31 | – | ≤ 4.52 |
| C[C@@H]1OCN(C(=O)c2cc(C3CC3)c(OCC34CC5CC(CC(C5)C3)C4)cc2F)[C@H]1C(=O)O [Example 163, (4R,5S)-3-[4-(1-adamantylmethoxy)-5-cyclopropyl-2-fluoro-benzoyl]-5-methyl-oxazolidine-4-carboxylic acid] | 6.09 | 6.92 | 5.33 | – |
| C[C@@H]1C[C@@H](C(=O)O)N(C(=O)c2cc(C3CC3)c(OCC34CC5CC(CC(C5)C3)C4)cc2F)C1 [Example 150, (2S,4R)-1-[4-(1-adamantylmethoxy)-5-cyclopropyl-2-fluoro-benzoyl]-4-methyl-pyrrolidine-2-carboxylic acid] | 5.92 | 7.07 | 4.72 | – |
| C[C@H]1C[C@@H](C(=O)O)N(C(=O)c2cc(C3CC3)c(OCC34CC5CC(CC(C5)C3)C4)cc2F)C1 [Example 148, (2S,4S)-1-[4-(1-adamantylmethoxy)-5-cyclopropyl-2-fluoro-benzoyl]-4-methyl-pyrrolidine-2-carboxylic acid] | 6.21 | 7.31 | 4.77 | – |
| O=C(O)C1SCCN1C(=O)c1cc(C2CC2)c(OCC23CC4CC(CC(C4)C2)C3)cc1F (stereo not drawn) [Example 78, 3-(4-(adamantan-1-ylmethoxy)-5-cyclopropyl-2-fluorobenzoyl)thiazolidine-2-carboxylic acid] | 7.06 | 8.03 | 4.89 | – |
| O=C(O)C1COCCN1C(=O)c1cc(C2CC2)c(OCC23CC4CC(CC(C4)C2)C3)cc1F (stereo not drawn) [Example 72, 4-(4-(adamantan-1-ylmethoxy)-5-cyclopropyl-2-fluorobenzoyl)morpholine-3-carboxylic acid] | 5.25 | 5.44 | 4.62 | – |
| C[C@@H]1[C@H](O)CN(C(=O)c2cc(C3CC3)c(OCC34CC5CC(CC(C5)C3)C4)cc2F)[C@@H]1C(=O)O [Example 231, (2S,3S,4S)-1-(4-(adamantan-1-ylmethoxy)-5-cyclopropyl-2-fluorobenzoyl)-4-hydroxy-3-methylpyrrolidine-2-carboxylic acid] | 6.44 | 6.54 | 4.82 | – |
| CC[C@@H](C)[C@H](NC(=O)c1cc(Cl)c(Oc2cnc(OCC(C)C)c(Cl)c2)cc1F)C(=O)O [Example 186, (2S,3R)-2-(5-chloro-4-((5-chloro-6-isobutoxypyridin-3-yl)oxy)-2-fluorobenzamido)-3-methylpentanoic acid] | 5.08 | 6.46 | 4.92 | – |
| O=C(c1cc(C2CC2)c(OCC23CC4CC(CC(C4)C2)C3)cc1F)N1CC2CC1(C(=O)O)C2 [Example 176, 3-[4-(1-adamantylmethoxy)-5-cyclopropyl-2-fluoro-benzoyl]-3-azabicyclo[2.1.1]hexane-4-carboxylic acid] | 5.89 | 6.44 | 5.14 | – |
| N#C[C@H]1C[C@@H](C(=O)O)N(C(=O)c2cc(C3CC3)c(OCC34CC5CC(CC(C5)C3)C4)cc2F)C1 [Example 144, (2S,4S)-1-[4-(1-adamantylmethoxy)-5-cyclopropyl-2-fluoro-benzoyl]-4-cyano-pyrrolidine-2-carboxylic acid] | 5.46 | 6.06 | – | ≤ 4.52 |
| O=C(O)[C@@H]1C[C@@H](F)CN1C(=O)c1cc(C2CC2)c(OCC2CCN(Cc3noc(-c4ccccc4Cl)n3)CC2)cc1F [Example 220, (2S, 4R)-1-(4-((1-((5-(2-chlorophenyl)-1,2,4-oxadiazol-3-yl)methyl)piperidin-4-yl)methoxy)-5-cyclopropyl-2-fluorobenzoyl)-4-fluoropyrrolidine-2-carboxylic acid] | 6.08 | 6.80 | – | ≤ 4.52 |

The next lines start with results.

| pIC50 [1] | pIC50 [2] | Structure (SMILES) | pIC50 ([3]; read-out: Nav1.5) | pIC50 [3, 4] |
| --- | --- | --- | --- | --- |
| 5.64 | 6.92 | C[C@H](c1cc(Cl)cc(Cl)c1)N1CCC(C#N)(COc2cc(F)c(C(=O)N3C[C@H](F)C[C@H]3C(=O)O)cc2C2CC2)CC1 (single isomer, unassigned) [Example 126a] | 5.00 | – |
| 6.52 | 7.82 | CC(c1cc(Cl)cc(Cl)c1)N1CCC(COc2cc(F)c(C(=O)N3C[C@H](F)C[C@H]3C(=O)O)cc2C2CC2)CC1 (stereo partly drawn) [Example 91, (2S, 4R)-1-(5-cyclopropyl-4-((1-(1-(3,5-dichlorophenyl)ethyl)piperidin-4-yl)methoxy)-2-fluorobenzoyl)-4-fluoropyrrolidine-2-carboxylic acid] | 4.64 | – |
| 6.10 | 7.14 | CC(c1cc(Cl)cc(Cl)c1)N1CCC(COc2cc(F)c(C(=O)N3CCC[C@H]3C(=O)O)cc2C2CC2)CC1 (single isomer, unassigned) [Example 79b] | – | ≤ 4.52 |
| 5.42 | 6.59 | O=C(N[C@H](C(=O)O)C1CCC1)c1cc(C2CC2)c(OCC23CC4CC(CC(C4)C2)C3)cc1F [Example 170, (2S)-2-[[4-(1-adamantylmethoxy)-5-cyclopropyl-2-fluorobenzoyl]amino]-2-cyclobutyl-acetic acid] | 5.43 | – |
| 6.89 | 7.57 | O=C(O)[C@@H]1C[C@@H](F)CN1C(=O)c1cc(C2CC2)c(OCC2(F)CCN(Cc3cc(C(F)(F)F)ccc3Cl)CC2)cc1F [Example 106, (2S,4R)-1-(4-((1-(2-chloro-5-(trifluoromethyl)benzyl)-4-fluoropiperidin-4-yl)methoxy)-5-cyclopropyl-2-fluorobenzoyl)-4-fluoropyrrolidine-2-carboxylic acid] | 4.68 | – |
| 5.77 | 7.70 | CC1(COc2cc(F)c(C(=O)N[C@H](C(=O)O)C3CC3)cc2C2CC2)CN([C@@H](c2ccccc2)c2cc(Cl)cc(Cl)c2)C1 (single isomer, unassigned) [Example 114] | 4.89 | – |
| 6.16 | 7.33 | C[C@@H](c1cc(Cl)cc(Cl)c1)N1CCC(COc2cc(F)c(C(=O)N3CCC[C@H]3C(=O)O)cc2C2CC2)CC1 (single isomer, unassigned) [Example 79a] | – | ≤ 4.52 |
| 6.54 | 7.57 | O=C(NC(C(=O)O)C1CC1)c1cc(C2CC2)c(COc2cc(Cl)cc(OC(F)(F)F)c2)cc1F (stereo in doubt) [Example 120, (R)-2-(4-((3-chloro-5-(trifluoromethoxy)phenoxy)methyl)-5-cyclopropyl-2-fluorobenzamido)-2-cyclopropylacetic acid] | 4.85 | – |
| 6.20 | 7.14 | O=C(O)[C@@H]1CCCN1C(=O)c1cc(C2CC2)c(COc2cc(Cl)cc(Cl)c2)s1 [Example 134, (S)-1-(4-cyclopropyl-5-((3,5-dichlorophenoxy)methyl)thiophene-2-carbonyl)pyrrolidine-2-carboxylic acid] | 5.15 | – |
| 6.07 | 7.82 | O=C(N[C@H](C(=O)O)C1CC1)c1cc(C2CC2)c(OCC2CCN([C@@H](c3ccccc3)c3cc(Cl)cc(Cl)c3)CC2)cc1F (single isomer, unassigned) [Example 119] | 5.03 | – |
| 6.89 | 7.92 | C[C@H]1OCN(C(=O)c2cc(C3CC3)c(OCC3CCN(C(c4cc(Cl)cc(Cl)c4)C(F)(F)F)CC3)cc2F)[C@@H]1C(=O)O (stereo partly drawn) [Example 226, (4S,5R)-3-(5-cyclopropyl-4-((1-(1-(3,5-dichlorophenyl)-2,2,2-trifluoroethyl)-piperidin-4-yl)methoxy)-2-fluorobenzoyl)-5-methyloxazolidine-4-carboxylic acid] | 5.21 | – |
| 6.10 | 7.15 | CC(C)[C@H](NC(=O)c1cc(C2CC2)c(OCC23CC4CC(CC(C4)C2)C3)cc1F)C(=O)O [Example 66, (S)-2-(4-(adamantan-1-ylmethoxy)-5-cyclopropyl-2-fluorobenzamido)-3-methylbutanoic acid] | 5.09 | – |
| 6.47 | 7.59 | CC(c1ccc(Cl)cc1Cl)N1CCC(COc2cc(F)c(C(=O)N3C[C@H](F)C[C@H]3C(=O)O)cc2C2CC2)CC1 (stereo partly drawn) [Example 174] | – | ≤ 4.52 |
